Results as given in US5137913A, “Diaryl ether cyclic ethers” (Imperial Chemical Industries PLC, priority 1989, dated 1992).
pIC50: −log10 of the molar value.

Legend:
5-LO (LTB4) = assay: Ex vivo assay: administration of compound, blood collection, challenge with A23187, LTB4 radioimmunoassay (test c); assay type: in vivo; details: oral
Protocol: c) An ex vivo assay system, which is a variation of test b) above, involving administration of a test compound (usually orally as the suspension produced when a solution of the test compound in dimethylsulphoxide is added to carboxymethylcellulose), blood collection, heparinisation, challenge with A23187 and radioimmunoassay of LTB4 and TxB2. This test provides an indication of the bioavailability of a test compound as an inhibitor of 5-LO or cyclooxygenase.

[1] = test system: 5-LO (LTB4) in heparinised human blood; assay: In vitro heparinised human blood challenged with A23187, LTB4 radioimmunoassay (test b); assay type: cell-based
Protocol: b) An in vitro assay system involving incubating a test compound with heparinised human blood, prior to challenge with the calcium ionophore A23187 and then indirectly measuring the inhibitory effects on 5-LO by assaying the amount of LTB4 using the specific radioimmunoassay described by Carey and Forder (F. Carey and R. A. Forder, Brit. J. Pharmacol. 1985, 84, 34P) which involves the use of a protein-LTB4 conjugate produced using the procedure of Young et alia (Prostaglandins, 1983, 26(4), 605-613). The effects of a test compound on the enzyme cyclooxygenase (which is involved in the alternative metabolic pathway for arachidonic acid and gives rise to prostaglandins, thromboxanes and related metabolites) may be measured at the same time using the specific radioimmunoassay for thromboxane B2 (TxB2) described by Carey and Forder (see above). This test provides an indication of the effects of a test compound against 5-LO and also cyclooxygenase in the presence of blood cells and proteins. It permits the selectivity of the inhibitory effect on 5-LO or cyclooxygenase to be assessed.

pIC50 [1]: 6.30
SMILES: CCC1(c2cccc(Sc3ccc4ccccc4c3)c2)COC(C)(C)O1 (centres unmarked) [Example 1, 4-ethyl-2,2-dimethyl-4-[3-(naphth-2-ylthio)phenyl]-1,3-dioxolane]
ED50 (5-LO (LTB4)): 3 mg/kg
